Measurements taken from patent US4147787A, “4,5,6,7-Tetrahydro-thieno[2,3-c]-and [3,2-c]-pyridines, and therapeutic compositions containing the same” (Parcor, priority 1977, dated 1979).

Key:
[1] = test system: rat globules (red corpuscles); test: In vitro anti-sludge activity, preventive treatment (protamine sulfate); assay type: cell-based
Procedure: (§1) Said activity was investigated in vitro and in vivo in rats.
(§2) Thrice washed rat globules are diluted to 1/250 in physiological saline. In each of 5 tubes are placed 0.6 ml of this suspension and 0.2 ml physiological saline. To each tube is then added 0-25-50-100 and 200 μg, respectively, of the test derivative contained in 0.2 ml solution. After incubation for one hour at 37° C., 0.2 ml of a solution containing 125 μg/ml protamine sulfate are added, after which the tube is then incubated again for 0.5 hour at 37° C. The globules of each tube are then examined with a Mallases cell, and the percent free globules and the percent aggregates formed by 2, 3, 4, 5 etc.. globules is then recorded.

[2] = test system: Collagen-induced blood-platelet aggregation; test: Collagen-induced blood-platelet aggregation; assay type: in vivo, Wistar rats; details: Rattus norvegicus, po; 100 mg/kg orally, rats, 3 hours after treatment; read-out: Percent inhibition of blood-platelet aggregation, Collagen
Procedure: (§3) A blood sample is taken from the jugular vein of Wistar rats. From this citrated blood and after centifugation, a plasma is reconstituted which contains 600,000 ± 20,000 blood-platelets per ml, which plasma is then used in all aggregation determinations.
(§4) 0.4 ml plasma is placed in a siliconized tube provided with a magnet bar, also siliconized. The tube is introduced into an aggregometer connected to an apparatus which records optical density variations. When light transmission has attained a stable value, 0.5 ml of a solution containing 10 μM A.D.P. (adenosinediphosphate) is added to the tube.
(§5) Blood-platelet aggregation induces an increase of light transmission, followed by a decrease subsequent to the deaggregation phase.
The A.D.P. solution is substituted with a collagen (bovine tendon extract) solution.
(§6) Different groups of 20 rats each are used, each group being orally administered 100 mg/kg of a test derivative.

[3] = test system: rat globules (red corpuscles); test: In vitro anti-sludge activity, curative procedure (protamine sulfate); assay type: cell-based; details: 25 μg
Procedure: as §1, §2
The experiment was repeated according to a "curvative" procedure; the red corpuscles were first contacted with protamine sulfate and, after incubation for 0.5 hour, 0.2 ml containing 25 μg of test derivative were added thereto, which operation is followed by another incubation for one hour at 37° C. The results obtained are reported in Table III, in which the percent agglomerates as a function of size is indicated.

[4] = test system: A.D.P. induced blood-platelet aggregation; test: A.D.P. induced blood-platelet aggregation; assay type: in vivo, Wistar rats; details: Rattus norvegicus, po; 100 mg/kg orally, rats, 3 hours after treatment, 10 μM A.D.P. solution; read-out: Percent inhibition of blood-platelet aggregation, A.D.P.
Procedure: as §3, §4, §5, §6

[5] = Acute toxicity (LD50, method according to Miller and Tainter); details: mouse, in vivo, mice, intravenous, read-out: LD50 /24h/kg body weight

SMILES: O=C(OCc1ccccc1Cl)C1Cc2sccc2CN1Cc1ccccc1Cl (stereo not shown) [Example 13, 5-o-Chlorobenzyl-6-o-chlorobenzyloxycarbonyl-4,5,6,7-tetrahydro-thieno[3,2-c]pyridine]
- percent agglomerates, size 2 ([1]; 25 μg): 26%
- percent agglomerates, size 3 ([1]; 25 μg): 9%
- percent agglomerates, size 4 ([1]; 25 μg): 0%
- percent agglomerates, size 5 ([1]; 25 μg): 0%
- percent agglomerates, size 6 ([1]; 25 μg): 0%
- percent agglomerates, size 7 ([1]; 25 μg): 0%
- percent agglomerates, size 8 ([1]; 25 μg): 0%
- percent agglomerates, size 9 ([1]; 25 μg): 0%
- percent agglomerates, size 10 ([1]; 25 μg): 0%
- percent agglomerates, size 11 ([1]; 25 μg): 0%
- percent agglomerates, size 12 ([1]; 25 μg): 0%
- percent agglomerates, size 13 ([1]; 25 μg): 0%
- percent free red corpuscles (size of agglomerates 1) ([1]; 25 μg): 65%
- percent agglomerates, size 2 ([1]; 50 μg): 23%
- percent agglomerates, size 3 ([1]; 50 μg): 5%
- percent agglomerates, size 4 ([1]; 50 μg): 4%
- percent agglomerates, size 5 ([1]; 50 μg): 0%
- percent agglomerates, size 6 ([1]; 50 μg): 0%
- percent agglomerates, size 7 ([1]; 50 μg): 0%
- percent agglomerates, size 8 ([1]; 50 μg): 0%
- percent agglomerates, size 9 ([1]; 50 μg): 0%
- percent agglomerates, size 10 ([1]; 50 μg): 0%
- percent agglomerates, size 11 ([1]; 50 μg): 0%
- percent agglomerates, size 12 ([1]; 50 μg): 0%
- percent agglomerates, size 13 ([1]; 50 μg): 0%
- percent free red corpuscles (size of agglomerates 1) ([1]; 50 μg): 68%
- percent agglomerates, size 2 ([1]; 100 μg): 8%
- percent agglomerates, size 3 ([1]; 100 μg): 3%
- percent agglomerates, size 4 ([1]; 100 μg): 2%
- percent agglomerates, size 5 ([1]; 100 μg): 0%
- percent agglomerates, size 6 ([1]; 100 μg): 0%
- percent agglomerates, size 7 ([1]; 100 μg): 0%
- percent agglomerates, size 8 ([1]; 100 μg): 0%
- percent agglomerates, size 9 ([1]; 100 μg): 0%
- percent agglomerates, size 10 ([1]; 100 μg): 0%
- percent agglomerates, size 11 ([1]; 100 μg): 0%
- percent agglomerates, size 12 ([1]; 100 μg): 0%
- percent agglomerates, size 13 ([1]; 100 μg): 0%
- percent free red corpuscles (size of agglomerates 1) ([1]; 100 μg): 87%
- percent agglomerates, size 2 ([1]; 200 μg): 9%
- percent agglomerates, size 3 ([1]; 200 μg): 1%
- percent agglomerates, size 4 ([1]; 200 μg): 0%
- percent agglomerates, size 5 ([1]; 200 μg): 0%
- percent agglomerates, size 6 ([1]; 200 μg): 0%
- percent agglomerates, size 7 ([1]; 200 μg): 0%
- percent agglomerates, size 8 ([1]; 200 μg): 0%
- percent agglomerates, size 9 ([1]; 200 μg): 0%
- percent agglomerates, size 10 ([1]; 200 μg): 0%
- percent agglomerates, size 11 ([1]; 200 μg): 0%
- percent agglomerates, size 12 ([1]; 200 μg): 0%
- percent agglomerates, size 13 ([1]; 200 μg): 0%
- percent free red corpuscles (size of agglomerates 1) ([1]; 200 μg): 90%
- inhibition at 100 mg/kg [2]: 96.1%
- percent agglomerates, size 2 [3]: 9%
- percent agglomerates, size 3 [3]: 5%
- percent agglomerates, size 4 [3]: 0%
- percent agglomerates, size 5 [3]: 0%
- percent agglomerates, size 6 [3]: 0%
- percent agglomerates, size 7 [3]: 0%
- percent agglomerates, size 8 [3]: 0%
- percent agglomerates, size 9 [3]: 0%
- percent agglomerates, size 10 [3]: 0%
- percent free red corpuscles (size of agglomerates 1) [3]: 86%
- inhibition at 100 mg/kg [4]: 64.4%

SMILES: O=C(O)[C@@H]1NCc2ccsc2[C@@H]1O (relative stereo) [Example 1, 6-Carboxy-7-hydroxy-4,5,6,7-tetrahydro-thieno[3,2-c]pyridine]
- percent agglomerates, size 2 ([1]; 25 μg): 25%
- percent agglomerates, size 3 ([1]; 25 μg): 11%
- percent agglomerates, size 4 ([1]; 25 μg): 0%
- percent agglomerates, size 5 ([1]; 25 μg): 0%
- percent agglomerates, size 6 ([1]; 25 μg): 0%
- percent agglomerates, size 7 ([1]; 25 μg): 0%
- percent agglomerates, size 8 ([1]; 25 μg): 0%
- percent agglomerates, size 9 ([1]; 25 μg): 0%
- percent agglomerates, size 10 ([1]; 25 μg): 0%
- percent agglomerates, size 11 ([1]; 25 μg): 0%
- percent agglomerates, size 12 ([1]; 25 μg): 0%
- percent agglomerates, size 13 ([1]; 25 μg): 0%
- percent free red corpuscles (size of agglomerates 1) ([1]; 25 μg): 64%
- percent agglomerates, size 2 ([1]; 50 μg): 24%
- percent agglomerates, size 3 ([1]; 50 μg): 5%
- percent agglomerates, size 4 ([1]; 50 μg): 2%
- percent agglomerates, size 5 ([1]; 50 μg): 0%
- percent agglomerates, size 6 ([1]; 50 μg): 0%
- percent agglomerates, size 7 ([1]; 50 μg): 0%
- percent agglomerates, size 8 ([1]; 50 μg): 0%
- percent agglomerates, size 9 ([1]; 50 μg): 0%
- percent agglomerates, size 10 ([1]; 50 μg): 0%
- percent agglomerates, size 11 ([1]; 50 μg): 0%
- percent agglomerates, size 12 ([1]; 50 μg): 0%
- percent agglomerates, size 13 ([1]; 50 μg): 0%
- percent free red corpuscles (size of agglomerates 1) ([1]; 50 μg): 69%
- percent agglomerates, size 2 ([1]; 100 μg): 7%
- percent agglomerates, size 3 ([1]; 100 μg): 4%
- percent agglomerates, size 4 ([1]; 100 μg): 3%
- percent agglomerates, size 5 ([1]; 100 μg): 0%
- percent agglomerates, size 6 ([1]; 100 μg): 0%
- percent agglomerates, size 7 ([1]; 100 μg): 0%
- percent agglomerates, size 8 ([1]; 100 μg): 0%
- percent agglomerates, size 9 ([1]; 100 μg): 0%
- percent agglomerates, size 10 ([1]; 100 μg): 0%
- percent agglomerates, size 11 ([1]; 100 μg): 0%
- percent agglomerates, size 12 ([1]; 100 μg): 0%
- percent agglomerates, size 13 ([1]; 100 μg): 0%
- percent free red corpuscles (size of agglomerates 1) ([1]; 100 μg): 86%
- percent agglomerates, size 2 ([1]; 200 μg): 9%
- percent agglomerates, size 3 ([1]; 200 μg): 2%
- percent agglomerates, size 4 ([1]; 200 μg): 0%
- percent agglomerates, size 5 ([1]; 200 μg): 0%
- percent agglomerates, size 6 ([1]; 200 μg): 0%
- percent agglomerates, size 7 ([1]; 200 μg): 0%
- percent agglomerates, size 8 ([1]; 200 μg): 0%
- percent agglomerates, size 9 ([1]; 200 μg): 0%
- percent agglomerates, size 10 ([1]; 200 μg): 0%
- percent agglomerates, size 11 ([1]; 200 μg): 0%
- percent agglomerates, size 12 ([1]; 200 μg): 0%
- percent agglomerates, size 13 ([1]; 200 μg): 0%
- percent free red corpuscles (size of agglomerates 1) ([1]; 200 μg): 89%
- inhibition at 100 mg/kg [2]: 95.8%
- LD50 at 24 h [5]: 118 mg/kg
- inhibition at 100 mg/kg [4]: 63.8%

SMILES: O=C(O)C1Cc2sccc2CN1Cc1ccccc1Cl (stereo not shown) [Example 23, 5-o-Chlorobenzyl-6-carboxy-4,5,6,7-tetrahydro-thieno[3,2-c]pyridine]
- percent agglomerates, size 2 ([1]; 25 μg): 21%
- percent agglomerates, size 3 ([1]; 25 μg): 16%
- percent agglomerates, size 4 ([1]; 25 μg): 3%
- percent agglomerates, size 5 ([1]; 25 μg): 0%
- percent agglomerates, size 6 ([1]; 25 μg): 0%
- percent agglomerates, size 7 ([1]; 25 μg): 0%
- percent agglomerates, size 8 ([1]; 25 μg): 0%
- percent agglomerates, size 9 ([1]; 25 μg): 0%
- percent agglomerates, size 10 ([1]; 25 μg): 0%
- percent agglomerates, size 11 ([1]; 25 μg): 0%
- percent agglomerates, size 12 ([1]; 25 μg): 0%
- percent agglomerates, size 13 ([1]; 25 μg): 0%
- percent free red corpuscles (size of agglomerates 1) ([1]; 25 μg): 60%
- percent agglomerates, size 2 ([1]; 50 μg): 25%
- percent agglomerates, size 3 ([1]; 50 μg): 6%
- percent agglomerates, size 4 ([1]; 50 μg): 4%
- percent agglomerates, size 5 ([1]; 50 μg): 0%
- percent agglomerates, size 6 ([1]; 50 μg): 0%
- percent agglomerates, size 7 ([1]; 50 μg): 0%
- percent agglomerates, size 8 ([1]; 50 μg): 0%
- percent agglomerates, size 9 ([1]; 50 μg): 0%
- percent agglomerates, size 10 ([1]; 50 μg): 0%
- percent agglomerates, size 11 ([1]; 50 μg): 0%
- percent agglomerates, size 12 ([1]; 50 μg): 0%
- percent agglomerates, size 13 ([1]; 50 μg): 0%
- percent free red corpuscles (size of agglomerates 1) ([1]; 50 μg): 65%
- percent agglomerates, size 2 ([1]; 100 μg): 14%
- percent agglomerates, size 3 ([1]; 100 μg): 5%
- percent agglomerates, size 4 ([1]; 100 μg): 1%
- percent agglomerates, size 5 ([1]; 100 μg): 0%
- percent agglomerates, size 6 ([1]; 100 μg): 0%
- percent agglomerates, size 7 ([1]; 100 μg): 0%
- percent agglomerates, size 8 ([1]; 100 μg): 0%
- percent agglomerates, size 9 ([1]; 100 μg): 0%
- percent agglomerates, size 10 ([1]; 100 μg): 0%
- percent agglomerates, size 11 ([1]; 100 μg): 0%
- percent agglomerates, size 12 ([1]; 100 μg): 0%
- percent agglomerates, size 13 ([1]; 100 μg): 0%
- percent free red corpuscles (size of agglomerates 1) ([1]; 100 μg): 78%
- percent agglomerates, size 2 ([1]; 200 μg): 11%
- percent agglomerates, size 3 ([1]; 200 μg): 4%
- percent agglomerates, size 4 ([1]; 200 μg): 2%
- percent agglomerates, size 5 ([1]; 200 μg): 0%
- percent agglomerates, size 6 ([1]; 200 μg): 0%
- percent agglomerates, size 7 ([1]; 200 μg): 0%
- percent agglomerates, size 8 ([1]; 200 μg): 0%
- percent agglomerates, size 9 ([1]; 200 μg): 0%
- percent agglomerates, size 10 ([1]; 200 μg): 0%
- percent agglomerates, size 11 ([1]; 200 μg): 0%
- percent agglomerates, size 12 ([1]; 200 μg): 0%
- percent agglomerates, size 13 ([1]; 200 μg): 0%
- percent free red corpuscles (size of agglomerates 1) ([1]; 200 μg): 83%
- inhibition at 100 mg/kg [2]: 95.2%
- LD50 at 24 h [5]: 180 mg/kg
- percent agglomerates, size 2 [3]: 10%
- percent agglomerates, size 3 [3]: 4%
- percent agglomerates, size 4 [3]: 1%
- percent agglomerates, size 5 [3]: 0%
- percent agglomerates, size 6 [3]: 0%
- percent agglomerates, size 7 [3]: 0%
- percent agglomerates, size 8 [3]: 0%
- percent agglomerates, size 9 [3]: 0%
- percent agglomerates, size 10 [3]: 0%
- percent free red corpuscles (size of agglomerates 1) [3]: 85%
- inhibition at 100 mg/kg [4]: 63.9%
